Common to all, as to format: cell-based
In test [1] the target is AXL (phospho-AXL, Gas6-stimulated A-172 glioblastoma cells) (Homo sapiens (Human), UniProt P30530). Put plainly: AXL autophosphorylation ELISA in A-172 cells (Example E). The conditions noted are these: cellular activity; AXL autophosphorylation ELISA in A-172 cells; read-out: Axl IC50. The procedure, abridged: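 Phospho-AXL was measured by ELISA in lysates of Gas6-stimulated A-172 cells, starved 24 h in serum-free medium and exposed 1 h to an 8-point compound dilution at 0.3% DMSO.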
AXL (phospho-AXL, Gas6-stimulated A-172 glioblastoma cells), sequence (P30530 26-894): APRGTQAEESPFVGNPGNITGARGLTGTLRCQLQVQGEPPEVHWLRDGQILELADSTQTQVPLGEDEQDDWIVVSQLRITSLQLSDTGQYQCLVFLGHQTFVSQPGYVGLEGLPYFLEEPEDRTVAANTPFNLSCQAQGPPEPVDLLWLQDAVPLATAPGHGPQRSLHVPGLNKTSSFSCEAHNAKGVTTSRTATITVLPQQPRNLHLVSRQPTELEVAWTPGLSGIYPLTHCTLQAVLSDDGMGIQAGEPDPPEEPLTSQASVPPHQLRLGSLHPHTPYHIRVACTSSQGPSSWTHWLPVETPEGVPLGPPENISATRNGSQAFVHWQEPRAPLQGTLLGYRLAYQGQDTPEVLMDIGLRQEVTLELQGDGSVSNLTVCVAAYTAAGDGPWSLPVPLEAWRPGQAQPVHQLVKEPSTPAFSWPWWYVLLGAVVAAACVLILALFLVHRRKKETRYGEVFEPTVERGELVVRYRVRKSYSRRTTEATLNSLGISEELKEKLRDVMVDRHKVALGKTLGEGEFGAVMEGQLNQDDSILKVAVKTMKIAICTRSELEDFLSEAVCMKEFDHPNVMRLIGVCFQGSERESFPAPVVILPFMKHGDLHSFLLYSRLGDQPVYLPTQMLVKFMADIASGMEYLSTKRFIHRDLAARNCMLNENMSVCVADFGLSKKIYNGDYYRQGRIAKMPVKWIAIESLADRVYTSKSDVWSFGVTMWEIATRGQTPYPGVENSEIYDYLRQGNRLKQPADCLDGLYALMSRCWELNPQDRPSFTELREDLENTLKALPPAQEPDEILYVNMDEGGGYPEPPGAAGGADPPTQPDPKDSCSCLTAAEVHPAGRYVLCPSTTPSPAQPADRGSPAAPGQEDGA
(In an ELISA, binding on a coated surface is turned into a signal by an enzyme label.)

In test [2] the target is Met (phospho-Met, HGF-stimulated PC-3 prostate cancer cells) (Homo sapiens (Human), UniProt P08581). Put plainly: Met autophosphorylation ELISA in PC-3 cells (Example F). The conditions noted are these: cellular activity; Met autophosphorylation ELISA in PC-3 cells; read-out: c-Met IC50. The procedure, abridged:
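IC50 values derive from a 4-parameter logistic fit of phospho-Met (panTyr) sandwich ELISA signals in PC-3 lysates, scaled between DMSO and reference-inhibitor wells. Cells, starved 3 h in serum-free medium, had 1 h compound exposure (8 doses, 0.3% DMSO) before 10 min stimulation with 100 ng/mL HGF.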

Test [3] has as its target KDR (phospho-KDR, VEGF165-stimulated HUVEC cells) (Homo sapiens (Human), UniProt P35968). Put plainly: KDR autophosphorylation ELISA in HUVEC cells (Example G). The conditions noted are these: cellular activity; KDR autophosphorylation ELISA in HUVEC cells. The procedure, abridged: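 Read-out is phospho-KDR measured by ELISA in lysates of VEGF165-stimulated (100 ng/mL, 5 min) HUVEC that were serum-starved 24 h and then pre-exposed 1 h to compound across 8 doses in 0.3% DMSO. Unstimulated lysates defined 0% and stimulated vehicle lysates 100% activity; IC50 values come from 4-parameter logistic regression.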

The target in test [4] is Mer (phospho-Mer, MERTK-transfected 293A cells) (Homo sapiens (Human), UniProt Q12866). Description: Mer autophosphorylation ELISA in transient transfected 293A cells (Example H). The conditions noted are these: cellular activity; Mer autophosphorylation ELISA in transient transfected 293A cells. The procedure, abridged: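 MERTK-transfected 293A; 8-pt dose, 1 h, serum-free, 0.3% DMSO. Cold lysis with orthovanadate and protease/phosphatase inhibitors. Phospho-Mer by DuoSet IC ELISA vs phospho-Mer standard. IC50: 4-PL fit; DMSO = 100%, reference inhibitor = 0%.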
Mer (phospho-Mer, MERTK-transfected 293A cells), sequence (Q12866 21-999): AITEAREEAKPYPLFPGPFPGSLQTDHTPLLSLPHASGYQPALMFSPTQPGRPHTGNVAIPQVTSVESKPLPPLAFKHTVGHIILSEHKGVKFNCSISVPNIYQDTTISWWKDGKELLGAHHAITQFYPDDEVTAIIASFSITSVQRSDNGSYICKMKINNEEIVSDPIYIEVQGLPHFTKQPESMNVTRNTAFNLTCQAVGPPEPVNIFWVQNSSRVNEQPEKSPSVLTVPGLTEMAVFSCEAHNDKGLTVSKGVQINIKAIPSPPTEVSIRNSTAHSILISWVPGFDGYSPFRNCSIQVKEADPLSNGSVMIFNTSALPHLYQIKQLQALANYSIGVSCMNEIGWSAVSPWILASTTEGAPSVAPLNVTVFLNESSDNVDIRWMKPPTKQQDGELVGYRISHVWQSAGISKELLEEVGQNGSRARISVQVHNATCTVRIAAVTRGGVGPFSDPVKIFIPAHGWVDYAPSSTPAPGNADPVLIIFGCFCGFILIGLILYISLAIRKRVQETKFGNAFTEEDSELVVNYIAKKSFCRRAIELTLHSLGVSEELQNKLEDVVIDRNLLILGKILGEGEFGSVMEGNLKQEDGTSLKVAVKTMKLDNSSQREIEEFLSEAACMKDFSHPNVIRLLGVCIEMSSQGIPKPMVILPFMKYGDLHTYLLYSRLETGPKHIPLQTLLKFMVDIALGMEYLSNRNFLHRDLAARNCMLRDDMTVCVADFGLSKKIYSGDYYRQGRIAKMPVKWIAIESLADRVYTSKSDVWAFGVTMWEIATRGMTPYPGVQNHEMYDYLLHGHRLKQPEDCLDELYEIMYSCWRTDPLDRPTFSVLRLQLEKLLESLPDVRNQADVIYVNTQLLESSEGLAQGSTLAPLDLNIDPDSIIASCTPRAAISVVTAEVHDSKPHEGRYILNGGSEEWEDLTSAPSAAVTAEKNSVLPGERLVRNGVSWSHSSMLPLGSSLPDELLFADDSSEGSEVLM

Experimental findings from patent US12371428B2 (Exelixis, Inc., priority 2019, dated 2025) are described below.

The term IC50 denotes the midpoint of a concentration-inhibition curve.

Met (phospho-Met, HGF-stimulated PC-3 prostate cancer cells), sequence (P08581 25-1390): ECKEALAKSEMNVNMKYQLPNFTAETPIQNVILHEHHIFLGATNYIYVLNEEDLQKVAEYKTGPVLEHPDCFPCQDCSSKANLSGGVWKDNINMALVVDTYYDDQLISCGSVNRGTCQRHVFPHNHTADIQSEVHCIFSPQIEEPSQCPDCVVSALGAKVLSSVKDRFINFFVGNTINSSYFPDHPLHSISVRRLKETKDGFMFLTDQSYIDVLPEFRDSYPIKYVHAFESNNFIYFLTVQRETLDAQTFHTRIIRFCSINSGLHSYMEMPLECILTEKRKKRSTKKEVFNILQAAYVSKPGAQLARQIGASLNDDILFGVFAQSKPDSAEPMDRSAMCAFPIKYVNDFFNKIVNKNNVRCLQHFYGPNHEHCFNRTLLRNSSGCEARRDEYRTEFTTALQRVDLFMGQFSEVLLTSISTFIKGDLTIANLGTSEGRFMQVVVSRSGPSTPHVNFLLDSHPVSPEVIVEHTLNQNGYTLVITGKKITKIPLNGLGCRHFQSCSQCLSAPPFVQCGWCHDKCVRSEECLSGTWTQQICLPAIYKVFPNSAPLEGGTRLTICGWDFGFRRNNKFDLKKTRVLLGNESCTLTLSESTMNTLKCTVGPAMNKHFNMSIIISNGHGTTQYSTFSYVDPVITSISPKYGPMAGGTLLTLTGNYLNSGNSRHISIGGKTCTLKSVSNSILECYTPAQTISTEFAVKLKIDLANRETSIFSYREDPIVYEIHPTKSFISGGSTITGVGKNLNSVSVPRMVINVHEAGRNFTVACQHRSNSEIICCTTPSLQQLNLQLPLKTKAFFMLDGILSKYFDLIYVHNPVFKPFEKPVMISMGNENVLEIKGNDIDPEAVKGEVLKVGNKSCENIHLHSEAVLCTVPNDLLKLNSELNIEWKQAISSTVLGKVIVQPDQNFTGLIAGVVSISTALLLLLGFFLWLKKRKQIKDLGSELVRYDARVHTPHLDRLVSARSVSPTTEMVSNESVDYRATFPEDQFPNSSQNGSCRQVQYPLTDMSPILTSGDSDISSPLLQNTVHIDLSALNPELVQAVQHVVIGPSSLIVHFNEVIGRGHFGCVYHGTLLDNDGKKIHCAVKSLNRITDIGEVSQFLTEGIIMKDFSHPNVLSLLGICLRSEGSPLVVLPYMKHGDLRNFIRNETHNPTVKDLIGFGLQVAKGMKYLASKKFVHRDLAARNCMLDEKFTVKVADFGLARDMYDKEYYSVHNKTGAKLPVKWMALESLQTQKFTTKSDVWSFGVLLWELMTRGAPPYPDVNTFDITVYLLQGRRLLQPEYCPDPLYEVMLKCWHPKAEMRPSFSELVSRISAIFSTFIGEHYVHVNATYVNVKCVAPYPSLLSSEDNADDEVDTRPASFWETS
KDR (phospho-KDR, VEGF165-stimulated HUVEC cells), sequence (P35968 20-1356): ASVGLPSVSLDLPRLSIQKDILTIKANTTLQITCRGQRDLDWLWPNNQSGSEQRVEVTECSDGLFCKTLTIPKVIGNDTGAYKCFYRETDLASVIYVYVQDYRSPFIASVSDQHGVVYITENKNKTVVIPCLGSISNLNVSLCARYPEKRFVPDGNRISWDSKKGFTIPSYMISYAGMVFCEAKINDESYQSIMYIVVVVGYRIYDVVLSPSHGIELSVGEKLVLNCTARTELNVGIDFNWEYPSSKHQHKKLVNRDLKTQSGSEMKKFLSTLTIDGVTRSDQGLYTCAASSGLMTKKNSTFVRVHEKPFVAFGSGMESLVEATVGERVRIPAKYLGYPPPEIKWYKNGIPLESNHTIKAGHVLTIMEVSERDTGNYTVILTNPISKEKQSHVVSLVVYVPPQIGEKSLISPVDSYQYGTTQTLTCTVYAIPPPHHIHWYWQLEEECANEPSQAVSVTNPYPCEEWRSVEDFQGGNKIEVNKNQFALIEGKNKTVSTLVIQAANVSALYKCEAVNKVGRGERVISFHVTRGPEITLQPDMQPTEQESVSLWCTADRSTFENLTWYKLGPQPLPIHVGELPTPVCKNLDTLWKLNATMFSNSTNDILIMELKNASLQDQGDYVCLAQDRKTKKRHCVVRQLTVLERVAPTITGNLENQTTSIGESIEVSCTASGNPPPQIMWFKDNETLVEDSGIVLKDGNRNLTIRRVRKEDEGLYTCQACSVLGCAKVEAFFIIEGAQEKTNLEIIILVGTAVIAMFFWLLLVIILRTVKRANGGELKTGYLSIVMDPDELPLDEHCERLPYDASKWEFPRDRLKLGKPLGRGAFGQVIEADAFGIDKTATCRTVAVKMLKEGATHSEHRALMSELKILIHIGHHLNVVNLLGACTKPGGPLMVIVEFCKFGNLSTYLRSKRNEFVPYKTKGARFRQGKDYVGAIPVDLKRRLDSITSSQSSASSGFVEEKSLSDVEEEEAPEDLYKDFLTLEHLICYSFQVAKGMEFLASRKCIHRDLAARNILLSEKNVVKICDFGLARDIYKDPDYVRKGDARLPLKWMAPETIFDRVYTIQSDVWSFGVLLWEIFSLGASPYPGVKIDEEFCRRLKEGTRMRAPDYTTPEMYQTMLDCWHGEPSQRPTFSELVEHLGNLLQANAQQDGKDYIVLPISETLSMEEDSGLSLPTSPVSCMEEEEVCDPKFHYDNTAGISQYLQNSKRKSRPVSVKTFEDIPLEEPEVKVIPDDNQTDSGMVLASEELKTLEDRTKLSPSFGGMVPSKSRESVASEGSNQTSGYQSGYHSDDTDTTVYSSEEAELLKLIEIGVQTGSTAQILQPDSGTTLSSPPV

With `COc1cc2nccc(Oc3ccc(NC(=O)c4nnc(C)c(-c5ccc(F)cc5)c4OC)cc3F)c2nc1OC` [Compound 531, N-[4-[(6,7-dimethoxy-1,5-naphthyridin-4-yl)oxy]-3-fluorophenyl]-5-(4-fluorophenyl)-4-methoxy-6-methylpyridazine-3-carboxamide], the concentration for half-maximal inhibition (IC50) in test [1], in test [2], in test [3] and in test [4] was < 100 nM in each case.
On to `COCc1cnn(-c2ccc(F)cc2)c(=O)c1C(=O)Nc1ccc(Oc2ccnc3cc(OC)cnc23)c(F)c1` [Compound 532, N-[3-fluoro-4-[(7-methoxy-1,5-naphthyridin-4-yl)oxy]phenyl]-2-(4-fluorophenyl)-5-(methoxymethyl)-3-oxopyridazine-4-carboxamide], for which the half-maximal inhibitory concentration (IC50) in test [1] was < 100 nM; in test [2], < 100 nM; in test [3], > 300 nM; in test [4], < 100 nM.
In the case of `COCc1cnn(-c2ccc(F)cc2)c(=O)c1C(=O)Nc1ccc(Oc2ccnc3cc(OC)c(OC)nc23)c(F)c1` [Compound 533, N-[4-[(6,7-dimethoxy-1,5-naphthyridin-4-yl)oxy]-3-fluorophenyl]-2-(4-fluorophenyl)-5-(methoxymethyl)-3-oxopyridazine-4-carboxamide], the half-inhibitory concentration (IC50) in test [1], in test [2], in test [3] and in test [4] was < 100 nM throughout.
As to `COc1cc2nccc(Oc3ccc(NC(=O)c4nnc(C)c(-c5ccc(F)cc5)c4OC)cc3)c2nc1OC` [Compound 534, N-[4-[(6,7-dimethoxy-1,5-naphthyridin-4-yl)oxy]phenyl]-5-(4-fluorophenyl)-4-methoxy-6-methylpyridazine-3-carboxamide], the half-inhibitory concentration (IC50) in test [1], in test [2], in test [3] and in test [4] was < 100 nM in each case.
With `COCc1nc(C)c(Br)c(O)c1C(=O)Nc1ccc(Oc2ccnc3cc(OC)c(OC)nc23)c(F)c1` [Compound 535, 5-bromo-N-[4-[(6,7-dimethoxy-1,5-naphthyridin-4-yl)oxy]-3-fluorophenyl]-4-hydroxy-2-(methoxymethyl)-6-methylpyridine-3-carboxamide], the IC50 in test [1] was < 100 nM; in test [2], < 100 nM; in test [3] it was > 300 nM; in test [4] it was < 100 nM.
On to `COc1cc2nccc(Oc3ccc(NC(=O)c4n[nH]c(C)cc4=O)cc3F)c2nc1OC` [Compound 536, N-[4-[(6,7-dimethoxy-1,5-naphthyridin-4-yl)oxy]-3-fluorophenyl]-6-methyl-4-oxo-1H-pyridazine-3-carboxamide], for which the half-maximal inhibitory concentration (IC50) in test [1], in test [2], in test [3] and in test [4] was > 300 nM throughout.
In the case of `COCc1cnn(-c2ccc(F)cc2)c(=O)c1C(=O)Nc1ccc(Oc2ccnc3cc(OC)c(OC)nc23)cc1` [Compound 537, N-[4-[(6,7-dimethoxy-1,5-naphthyridin-4-yl)oxy]phenyl]-2-(4-fluorophenyl)-5-(methoxymethyl)-3-oxopyridazine-4-carboxamide], the half-maximal inhibitory concentration (IC50) in test [1], in test [2], in test [3] and in test [4] was < 100 nM each time.
`COc1ccc2nccc(Oc3ccc(NC(=O)c4nnc(C)c(-c5ccc(F)cc5)c4OC)cc3F)c2n1` [Compound 538, N-[3-fluoro-4-[(6-methoxy-1,5-naphthyridin-4-yl)oxy]phenyl]-5-(4-fluorophenyl)-4-methoxy-6-methylpyridazine-3-carboxamide]: the half-maximal inhibitory concentration (IC50) in test [1], in test [2], in test [3] and in test [4] was < 100 nM in each case.
In the case of `COc1cc2nccc(Oc3ccc(NC(=O)c4cn5c(c(-c6ccc(F)cc6)c4=O)COCC5)cc3F)c2nc1OC` [Compound 564, N-[4-[(6,7-Dimethoxy-1,5-naphthyridin-4-yl)oxy]-3-fluorophenyl]-9-(4-fluorophenyl)-8-oxo-3,4-dihydro-1H-pyrido[2,1-c][1,4]oxazine-7-carboxamide], the IC50 in test [1] is < 100 nM; in test [2], < 100 nM; in test [3] it was 100 to 300 nM; in test [4], < 100 nM.
Take `CNC(=O)Cc1nc2c(Oc3ccc(NC(=O)c4cnc(C)c(-c5ccc(F)cc5)c4O)cc3F)ccnc2cc1OC` [Compound 570, N-[3-Fluoro-4-[[7-methoxy-6-[2-(methylamino)-2-oxoethyl]-1,5-naphthyridin-4-yl]oxy]phenyl]-5-(4-fluorophenyl)-4-hydroxy-6-methylpyridine-3-carboxamide]: the half-maximal inhibitory concentration (IC50) in test [1], in test [2], in test [3] and in test [4] was < 100 nM each time.
In the case of `COc1cc2nccc(Oc3ccc(NC(=O)c4nnc(C)c(-c5ccc(F)cc5)c4OC)cc3F)c2cc1OC` [Compound 571, N-[4-(6,7-Dimethoxyquinolin-4-yl)oxy-3-fluorophenyl]-5-(4-fluorophenyl)-4-methoxy-6-methylpyridazine-3-carboxamide], the IC50 in test [1], in test [2], in test [3] and in test [4] was < 100 nM each time.
For the compound `CCOc1c(C(=O)Nc2ccc(Oc3ccnc4cc(OC)c(OC)cc34)c(F)c2)nnc(C)c1-c1ccc(F)cc1` [Compound 572, N-[4-(6,7-Dimethoxyquinolin-4-yl)oxy-3-fluorophenyl]-4-ethoxy-5-(4-fluorophenyl)-6-methylpyridazine-3-carboxamide], the IC50 in test [1], in test [2], in test [3] and in test [4] was < 100 nM throughout.
`CCn1nc(C(=O)Nc2ccc(Oc3ccnc4cc(OC)c(OC)cc34)c(F)c2)c(=O)c(-c2ccc(F)cc2)c1C` [Compound 573, N-[4-(6,7-Dimethoxyquinolin-4-yl)oxy-3-fluorophenyl]-1-ethyl-5-(4-fluorophenyl)-6-methyl-4-oxopyridazine-3-carboxamide]: the IC50 in test [1], in test [2], in test [3] and in test [4] was < 100 nM in each case.
On to `COc1cc2nccc(Oc3ccc(NC(=O)c4nnc(C)c(-c5ccc(F)cc5)c4OC(C)C)cc3F)c2cc1OC` [Compound 574, N-[4-(6,7-Dimethoxyquinolin-4-yl)oxy-3-fluorophenyl]-5-(4-fluorophenyl)-6-methyl-4-propan-2-yloxypyridazine-3-carboxamide], for which the IC50 in test [1], in test [2], in test [3] and in test [4] was < 100 nM each time.
`COc1cc2nccc(Oc3ccc(NC(=O)c4nn(C(C)C)c(C)c(-c5ccc(F)cc5)c4=O)cc3F)c2cc1OC` [Compound 575, N-[4-(6,7-Dimethoxyquinolin-4-yl)oxy-3-fluorophenyl]-5-(4-fluorophenyl)-6-methyl-4-oxo-1-propan-2-ylpyridazine-3-carboxamide]: the IC50 in test [1], in test [2], in test [3] and in test [4] was < 100 nM each time.
For `COc1cc2nccc(Oc3ccc(NC(=O)c4cc(-c5ccc(F)cc5)c(C)nn4)cc3F)c2nc1OC` [Compound 601, N-[4-[(6,7-Dimethoxy-1,5-naphthyridin-4-yl)oxy]-3-fluorophenyl]-5-(4-fluorophenyl)-6-methylpyridazine-3-carboxamide], the half-maximal inhibitory concentration (IC50) in test [1] was > 300 nM; in test [2], > 300 nM; in test [3], > 300 nM; in test [4], < 100 nM.
In the case of `COc1cc2ncnc(Oc3ccc(NC(=O)c4ccc(C)n(-c5ccc(F)cc5)c4=O)cc3F)c2nc1OC` [Compound 635], the half-inhibitory concentration (IC50) in test [1], in test [2], in test [3] and in test [4] was < 100 nM in each case.
For `COCCOc1cc2ncnc(Oc3ccc(NC(=O)c4ccc(C)n(-c5ccc(F)cc5)c4=O)cc3F)c2nc1OC` [Compound 638, N-[3-fluoro-4-[6-methoxy-7-(2-methoxyethoxy)pyrido[3,2-d]pyrimidin-4-yl]oxyphenyl]-1-(4-fluorophenyl)-6-methyl-2-oxopyridine-3-carboxamide], the IC50 in test [1], in test [2], in test [3] and in test [4] was < 100 nM throughout.
Take `COc1cc2nccc(Oc3ccc(NC(=O)c4c[nH]c(=S)n(-c5ccc(F)cc5)c4=O)cc3F)c2cc1OC` [Compound 646, N-[4-(6,7-dimethoxyquinolin-4-yl)oxy-3-fluorophenyl]-3-(4-fluorophenyl)-4-oxo-2-sulfanylidene-1H-pyrimidine-5-carboxamide]: the IC50 in test [1], in test [2], in test [3] and in test [4] was < 100 nM in each case.
